Measurements reported in patent US5585355A, “Method for increasing blood-ocular barrier permeability with permeabilizer peptides” (Alkermes, Inc., priority 1994, dated 1996).
Where two headings read alike, the source gives them in different places.

Experiments:
blood-ocular barrier [1] = experiment: Uptake of [3H]-ganciclovir into the eye after arterial infusion of A-7 (VEP); type: in vivo, guinea pig; conditions: for KIN of [3H]-ganciclovir: 0 min to 3.0 min; for KIN for ganciclovir, times higher in the presence of A-7: 0 to 3.0 min
Description: (§1) Animals were anaesthetized with 6 mg/kg xylazine (Rompun®, Mobay Corp., Shawnee, Kans.) and 30 mg/kg ketamine (Vetacet®, Abeco Co., Inc., Fort Dodge, Iowa) before surgically exposing the neck vessels. The vascular eye perfusion (VEP) technique used here and previously described by Zlokovic et al. (1992, Exp. Eye Res., 54:471) allows for the study of uptake of agents in to the eye while protecting the eye from systemic metabolic changes. The technique is briefly summarized here. A fine polyethylene catheter connected to the extracorporeal perfusion system by silicon tubings was inserted into the right common carotid artery. Immediately after the start of the perfusion, the contralateral carotid artery was ligated and both jugular veins cut to allow free drainage of the perfusate.
The perfusion medium consisted of 20% washed sheep red blood cells (RBC) suspended in mock plasma of the following composition (in mM): 123 NaCl, 4 KCl, 2.5 CaCl2.H2 O, 25 NaHCO3, 1.2 KH2 PO4, 1.8 MgCl2.6H2 O and 5.5 D-glucose. The perfusion medium was gassed with 96% O2 and 4% CO2 and warmed to 37.6° C., and was pumped from a reservoir through a water bath using a Rainin Rabbit peristaltic pump (Rainin Instruments, Woburn, Mass.). All tubing was low gas permeable silicon, and all metal was medical grade stainless steel. The temperature and perfusion pressure were continuously recorded, and the acid-base status frequently monitored. Perfusion pressure was kept slightly above the animal's blood pressure to eliminate any possible ingress from the systemic circulation.
(§2) Isotopically labeled [^14 C]-sucrose was introduced into the perfusion circuit after the 5 minute infusion at a rate of 0.4 to 0.6 μCi/ml/min, over periods ranging from 1.5 min to 4.5 min. In all experiments, the perfusion was terminated by severing the right common carotid artery and decapitating the animal.
(§3) As large a sample as possible (30-40 μl) of the aqueous humor was removed with a 0.5 cc U-100 insulin syringe using 28 G 1/2 microfine IV needle (no dead-space), immediately after the perfusion was terminated. The eyes were enucleated and the lenses rapidly excised via a lateral approach 1.5 mm posteriorly to the limbus. The lenses were blotted on filter paper to remove any adhering aqueous humor and to avoid epithelial contamination by aqueous radioactivity. Corneas were dissected circumferentially about 0.5 mm anteriorly to the limbus. After removal of the anterior segment of the eye, the vitreous body was dissected from the retinal surface. Retinas were scooped from the lying epithelium. All tissues were blotted after dissection to minimize contamination by adjacent tissue layers and/or fluids. Samples of plasma, aqueous humor, lens, cornea, retina and posterior vitreous were treated with 2 ml Beckman Tissue Solubilizer (BTS)-450, and 16 ml of scintillant (Beckman Ready Organic, Fullerton, Calif.). Radioactivity was determined in a Beckman LS-7500 liquid scintillation spectrometer.
The methodology of these experiments is similar to that of Example 1 described above. […] The ocular compartments were dissected as described above and analyzed for uptake of [^3 H]-ganciclovir.

blood-ocular barrier [2] = experiment: Uptake of [3H]-ganciclovir into retina and lens following intravenous administration of A-7; type: in vivo, guinea pig; conditions: for Uptake of [3H]-ganciclovir, % of plasma concentration (W/W): five minute intravenous administration of A-7
Description: The methodology of these experiments is similar to that of Example 1 except for the following modifications. In this case, [^3 H]-ganciclovir (22 Ci mmol^-1, Moravek Brea, Calif.) was injected into the right jugular vein instead of the common carotid artery. […] The lenses and retinas were removed as described in Example 1.

blood-ocular barrier [3] = conditions: aqueous, A-7 1 μg/kg
Description: Adult Hartley guinea pigs of either sex (250-300 g) were used.
as §1, with “The vascular eye perfusion (VEP) technique used here and previously described by Zlokovic et al. (1992, Exp. Eye Res., 54:471) allows for the study of uptake of agents in to the eye while protecting the eye from systemic metabolic changes.” left out
All tubing was low gas permeable silicon, and all metal was medical grade stainless steel. The temperature and perfusion pressure were continuously recorded, and the acid-base status frequently monitored. Perfusion pressure was kept slightly above the animal's blood pressure to eliminate any possible ingress from the systemic circulation.
as §2
as §3, with “The” for “As large a sample as possible (30-40 μl) of the aqueous humor was removed with a 0.5 cc U-100 insulin syringe using 28 G 1/2 microfine IV needle (no dead-space), immediately after the perfusion was terminated. The”
(When data are expressed as percentages the ratios were multiplied by 100.) The following equations were used to calculate ratios:
Caqueous or Cvitreous /Cplasma =(DPM/ml aqueous or vitreous)/(DPM/ml plasma)
Clens or Ccornea or Cretina /Cplasma =(DPM/g lens or cornea or retina)/(DPM/ml plasma)
Multiple-time uptake series were performed, and the unidirectional transport rate constant, KIN, and initial volume of tracer distribution, VI, were calculated using the following equations where T is the perfusion time:
KIN (plasma-aqueous or vitreous)=[Caqueous or vitreous /Cplasma ]T+VI (aqueous or vitreous/plasma)
KIN (plasma-lens, cornea or retina)=[Clens, cornea or retina /Cplasma ]T+VI (lens cornea or retina/plasma)
The respective KIN and VI values were graphically estimated by linear regression analysis as a slope and ordinate intercept of the line corresponding to the best linear fit to experimental data points for the time period when there was no significant departure from linearity in studied compartments.
Results are presented as means±SE.

Arginine-Proline-Hydroxyproline-Glycine-Thienylalanine-Serine-Proline-4-Me-Tyrosine-(CH2 NH)Arginine [A-7]
Uptake of [3H]-ganciclovir, % of plasma concentration (W/W) (blood-ocular barrier [1]; aqueous, 1.5 min, arterial infusion of A-7): 0.46 ± 0.1 % of Plasma Concentration (W/W
Uptake of [3H]-ganciclovir, % of plasma concentration (W/W) (blood-ocular barrier [1]; aqueous, 3.0 min, arterial infusion of A-7): 0.51 ± 0.21 % of Plasma Concentration (W/W
Uptake of [3H]-ganciclovir, % of plasma concentration (W/W) (blood-ocular barrier [1]; aqueous, 4.5 min, arterial infusion of A-7): 0.55 ± 1.0 % of Plasma Concentration (W/W
Ganciclovir uptake into other compartments (blood-ocular barrier [1]; compartments other than retina and lens, within the measured time periods): did not substantially increase
KIN of [3H]-ganciclovir (blood-ocular barrier [1]; cornea): 1.21 µL/min/g
Uptake of [3H]-ganciclovir, % of plasma concentration (W/W) (blood-ocular barrier [1]; cornea, 1.5 min, arterial infusion of A-7): 1.16 ± 0.53 % of Plasma Concentration (W/W
Uptake of [3H]-ganciclovir, % of plasma concentration (W/W) (blood-ocular barrier [1]; cornea, 3.0 min, arterial infusion of A-7): 2.98 ± 0.33 % of Plasma Concentration (W/W
Uptake of [3H]-ganciclovir, % of plasma concentration (W/W) (blood-ocular barrier [1]; cornea, 4.5 min, arterial infusion of A-7): 2.92 ± 0.46 % of Plasma Concentration (W/W
KIN of [3H]-ganciclovir (blood-ocular barrier [1]; lens): 40.3 ± 5.6 µL/min/g
KIN for ganciclovir, times higher in the presence of A-7 (blood-ocular barrier [1]; lens): 1.3 times
Uptake of [3H]-ganciclovir, % of plasma concentration (W/W) (blood-ocular barrier [1]; lens, 1.5 min, arterial infusion of A-7): 7.89 ± 0.52 % of Plasma Concentration (W/W
Uptake of [3H]-ganciclovir, % of plasma concentration (W/W) (blood-ocular barrier [1]; lens, 3.0 min, arterial infusion of A-7): 11.86 ± 1.42 % of Plasma Concentration (W/W
Uptake of [3H]-ganciclovir, % of plasma concentration (W/W) (blood-ocular barrier [1]; lens, 4.5 min, arterial infusion of A-7): 13.37 ± 1.06 % of Plasma Concentration (W/W
Increase in uptake of ganciclovir into the lens (blood-ocular barrier [1]; lens, from 1.5 to 4.5 minutes of VEP): 1.5-2 fold
KIN of [3H]-ganciclovir (blood-ocular barrier [1]; retina): 21.2 ± 1.5 µL/min/g
KIN for ganciclovir, times higher in the presence of A-7 (blood-ocular barrier [1]; retina): 2.6 times
Uptake of [3H]-ganciclovir, % of plasma concentration (W/W) (blood-ocular barrier [1]; retina, 1.5 min, after 5 min arterial infusion of A-7): 3.96 ± 0.68 % of Plasma Concentration (W/W
Uptake of [3H]-ganciclovir, % of plasma concentration (W/W) (blood-ocular barrier [1]; retina, 3.0 min, after 5 min arterial infusion of A-7): 6.56 ± 0.79 % of Plasma Concentration (W/W
Uptake of [3H]-ganciclovir, % of plasma concentration (W/W) (blood-ocular barrier [1]; retina, 4.5 min, after 5 min arterial infusion of A-7): 7.42 ± 1.14 % of Plasma Concentration (W/W
Increase of retinal uptake of ganciclovir compared to vehicle control (blood-ocular barrier [1]; retina, from 1.5 to 4.5 minutes of VEP): two-fold
KIN of [3H]-ganciclovir (blood-ocular barrier [1]; vitreous): 0.47 µL/min/g
Uptake of [3H]-ganciclovir, % of plasma concentration (W/W) (blood-ocular barrier [1]; vitreous, 1.5 min, arterial infusion of A-7): 0.02 ± 0.00 % of Plasma Concentration (W/W
Uptake of [3H]-ganciclovir, % of plasma concentration (W/W) (blood-ocular barrier [1]; vitreous, 3.0 min, arterial infusion of A-7): 0.04 ± 0.03 % of Plasma Concentration (W/W
Uptake of [3H]-ganciclovir, % of plasma concentration (W/W) (blood-ocular barrier [1]; vitreous, 4.5 min, arterial infusion of A-7): 0.11 ± 0.04 % of Plasma Concentration (W/W
Uptake of [3H]-ganciclovir, % of plasma concentration (W/W) (blood-ocular barrier [2]; lens, 1.5 min): 5.46 ± 1.08 % of Plasma Concentration (W/W
Uptake of [3H]-ganciclovir, % of plasma concentration (W/W) (blood-ocular barrier [2]; lens, 4.5 min): 10.01 ± 1.37 % of Plasma Concentration (W/W
Uptake of [3H]-ganciclovir, % of plasma concentration (W/W) (blood-ocular barrier [2]; retina, 1.5 min): 3.94 ± 0.36 % of Plasma Concentration (W/W
Uptake of [3H]-ganciclovir, % of plasma concentration (W/W) (blood-ocular barrier [2]; retina, 4.5 min): 8.45 ± 1.00 % of Plasma Concentration (W/W
Increase of retinal uptake of [3H]-ganciclovir above vehicle treated controls (blood-ocular barrier [2]; retina, intravenous A-7, p=0.001): more than 2 fold
Uptake of [14C]-sucrose, % of plasma concentration (W/W) (blood-ocular barrier [3]; 1.5 min after sucrose added): 0.19 ± 0.01 % of Plasma Concentration (W/W
Uptake of [14C]-sucrose, % of plasma concentration (W/W) (blood-ocular barrier [3]; 3.0 min after sucrose added): 0.41 ± 0.18 % of Plasma Concentration (W/W
KIN, unidirectional transport rate of [14C]-sucrose (blood-ocular barrier [3]; 3.0 min to 4.5 min): 9.13 ± 3.66 µL/min/g
